Data set [1] has as its system Fmr1 KO and wildtype NPCs. The data set can be described thus: Western blot analyses of p-AKT, p-MDM2, MDM2 and P53 in NPCs. Type of data set: cell-based, mouse. On the procedure: NPCs were isolated from the dentate gyms of 8 to 10-week-old male Fmr1 KO mice and wild-type (wildtype) littermate controls based on our published methods (12, 64). Independently isolated cells serve as biological replicates. Proliferation and differentiation of NPCs was analyzed as described (11, 12, 61). We used only early passage cells (between passage 4 and 10) and only the same passage numbers of wildtype and Fmr1 KO cells. For each experiment, triplicate wells of cells were analyzed, and results were averaged as one data point (n=1). At least 3 independent biological replicates were used (n=3) for statistical analyses.
Protein samples were separated on SDS-PAGE gels (Bio-Rad), transferred to PVDF membranes (Millipore), and incubated with primary antibodies. After incubation with fluorescence-labeled secondary antibodies (Li—CoR), the membranes were imaged using Li—CoR and quantification was performed using ImageJ software. At least n=3 independent blots were used for statistical analysis.
For loading controls, membranes were probed with the mouse antibody against GAPDH.
On the technique in general: A western blot detects proteins with antibodies after separation by electrophoresis.

Data set [2] relates to Fmr1 KO and wildtype NPCs. The data set can be described thus: Cell death analysis (PI/Hoechst, CellTiter-Glo viability) of NPCs. Particulars: 2 μM Nutlin-3. Type of data set: cell-based, mouse. The source says:
Three different methods were used to assay cell death. Fluorescein isothiocyanate and propidium iodide (Annexin V-FITC Apoptosis Detection Kit, Sigma, #APOAF) were used to assess NSC apoptosis. Intact cells were Annexin V^−PI^−. Early and late apoptotic cells were Annexin V^+PI^− and Annexin V^+PI^+, respectively. Necrotic cells were Annexin V−PI+. The number of early apoptotic cells (Annexin V^+PI^−; Phase II) and late apoptotic cells (Annexin V^+PI^+, Phase I) were used to calculate the percentage of apoptotic cells. In a second method, propidium iodide (1 mg/mL) and […] (1 mM) were added to cultured cells for 15 min, followed by high content imaging analysis (Oppretta, GE) to quantify the percentage of Hoechst positive (all) cells that are PI positive (dead) cells. In the third method, Cell viability was measured using CellTiter-Glo Luminescent Cell Viability Assay (Promega). 2 μM Nutlin-3 (Nt3, Selleckchem, 51061) was added to proliferating aNPCs at 6 hours post-plating. Cells were then harvested 24 hours later with CellTiter-Glo buffer at room temperature. Signal intensity was immediately measured using a Glomax plate reader (Promega) according to manufacturer's instruction.
(In ATP-based viability assays light output follows the ATP content of the culture.)

Data set [3] has as its system NSCs of Fmr1 KO and wildtype mice. Kind of data set: In vivo cell fate analysis of BrdU+ cells (NeuN, S100β). On the set-up: species or system mouse. Particulars: 10 mg/kg, 5 injections, analyzed 4 weeks after last treatment. On the procedure:
All animal procedures were performed according to protocols approved by the University of Wisconsin-Madison Care and Use Committee. All mice were on C57B/L6 genetic background. The Fmr1 KO/Nestin-GFP mice (Fmr1−/y::Nestin-GFP) were created by crossing female Fmr1 heterozygous KO mice (Fmr1+/−) (59) with homozygous Nestin-GFP transgenic males (60). Generation of FMRP inducible conditional mutant mice (Fmr1loxP/y::Nestin-CreERT2::Rosa26-tdt) and tamoxifen injections to induce recombination were performed as described (12). To induce recombination, mice (6-weeks old) received Tamoxifen (Sigma-Aldrich) daily for 5 d (160 mg/kg) as described (12). Nutlin-3 (10 mg/kg) was given to 7-8 week-old mice or 20-week old mice through IP injections every other day for 5 injections and sacrificed at either 24 hours, 4 weeks, 12, or 20 weeks after the last injection. For NSC differentiation analysis, mice also received four BrdU injections (100 mg/kg) between day 2 and 3 of Nutlin-3 injections. To induce recombination in FMRP inducible conditional mutant mice (Fmr1^loxP/y::Nestin-CreER^T2::Rosa26-tdt) mice, mice 6-weeks old male mice received Tamoxifen (Sigma-Aldrich) daily for 5 days (160 mg kg-1 i.p., 30 mg ml^−1 in 10% ethanol mixed with sunflower oil, SigmaAldrich) based on a published procedure (13). BrdU (Sigma-Aldrich, B5002) was made in a concentration of 20 mg/mL in PBS. Nutlin-3 (Nt3, Cayman Chemical, 10004372) was made in a concentration of 100 mg/mL in dimethyl sulfoxide (DMSO).
Brain tissue processing and histological analysis of mouse brains were performed as described in our publications (11, 12, 61). Briefly mice were euthanized by IP injection of sodium pentobarbital and then transcardially perfused with saline followed by 4% PFA. Brains were dissected out, post-fixed overnight in 4% PFA, and equilibrated in 30% sucrose. 40 μm brain sections were generated using a sliding microtome and stored as floating sections in cryoprotectant solution (glycerol, ethylene glycol, and 0.1M phosphate buffer, pH 7.4, 1:1:2 by volume). We performed immunohistological analysis on 1-in-6 serial floating brain sections (240 μm apart). […]
Phenotypic analysis of tdT+ cells was performed as described 3,4. Briefly, at least 50 tdT+ cells in the DG were randomly selected, and their colocalization with cell-lineage markers (e.g., double labeling with GFAP) was determined using Nikon A1 confocal microscope and quantified using Image J software (NIH). […] Briefly, at least 50 BrdU+ cells in the DG were randomly selected, and the colocalization of BrdU with cell-lineage markers (NeuN or S100β) was determined using Nikon A1 confocal microscope and quantified using Image J software (NIH). […]

SMILES strings stand for the structures.

Consider `COc1ccc(C2=N[C@@H](c3ccc(Cl)cc3)[C@@H](c3ccc(Cl)cc3)N2C(=O)N2CCNC(=O)C2)c(OC(C)C)c1` [Nutlin-3], for which the P53 expression result in data set [1] (Fmr1 KO NPCs) is given as “increased P53”; in data set [1] (wildtype NPCs), “no significant effect on wildtype cells”. The “p-MDM2 (Ser166)” value in data set [1] (Fmr1 KO NPCs) and in data set [1] (wildtype NPCs) was “did not affect p-MDM2 levels” each time. In addition, the “cell death and survival” value in data set [2] (Fmr1 KO NPCs) is “did not exhibit significant effects on cell death and survival”; in data set [2] (wildtype NPCs) it was “did not exhibit significant effects on cell death and survival”. Moreover, the “astroglial differentiation (S100β+ among BrdU+ cells)” value in data set [3] (Fmr1 KO mice) is “rescued both neuronal and astroglial differentiation”; in data set [3] (wildtype mice), “without any significant effect on wildtype mice”. Further, the “neuronal differentiation (NeuN+ among BrdU+ cells)” value in data set [3] (Fmr1 KO mice) was “rescued both neuronal and astroglial differentiation”; in data set [3] (wildtype mice), “without any significant effect on wildtype mice”.
